pEC50: −log10 of the molar value.
Legend:
[1] = Solid physical stability test at high humidity (25° C./92.5% RH), appearance and XRPD; type: physicochemical
Description: Samples (each about 100 mg) of the amorphous form of the compound of formula (I) were weighed in duplicates, and placed on the bottom of a glass sample bottle to spread out into a thin layer. The mouth of the glass sample bottle was sealed with aluminum foil which was pierced to form some holes thereon to ensure that the samples could sufficiently contact with the ambient air. The prepared samples were placed under the relative conditions of 25° C./92.5%, and detected for their physical stability on Day 10. Meanwhile, a sample (about 100 mg) of the amorphous form of the compound of formula (I) was separately weighed, placed on the bottom of the glass sample bottle which was sealed with a screw cap, and stored at −20° C. as control. On Day 10, all the samples were taken out and returned to room temperature. The samples were visually observed for their appearance changes, and detected by XRPD for their forms. By comparing the accelerated sample with the control sample, the solid physical stability of the compound of formula (I) was determined.

[2] = Solid stability test under high temperature and high humidity (40° C./75% humidity), HPLC; type: physicochemical
Description: Samples (each about 100 mg) of the amorphous form of the compound of formula (I) were weighed in duplicates, and placed on the bottom of a glass sample bottle to spread out into a thin layer. The mouth of the glass sample bottle was sealed with aluminum foil which was pierced to form some holes thereon to ensure that the samples could sufficiently contact with the ambient air. The samples were placed in a constant temperature and humidity chamber at 40° C./75% humidity. The samples stored under the above conditions were sampled and tested on Days 10, 30, 60, and 90. The test results were compared with the initial test results of Day 0.

[3] = Stability tests of the amorphous form in various solvents, XRPD; type: physicochemical; conditions: for Appearance: 40° C. 2 days
Description: A plurality of samples of the amorphous form of the compound of formula (I) (each about 20 mg) were respectively added to 0.3-0.4 mL of a single or mixed solvent as listed in the table below, and stirred at 40° C. After being stirred for 2 days, if the sample was still in a state of a solution or close to a solution, it was filtered, followed by natural evaporation of solvent; and if the sample was still a suspension, the sample was centrifuged for collecting the precipitates, and the supernate was placed in a fuming cupboard until the solvent was dried off. Then, the precipitates and the solids obtained after solvent evaporation were placed in a vacuum drying oven at 40° C. overnight. The solids in all the samples were collected and detected by XRPD for their states.

[4] = test system: cytokines of PPAR-associated pathways; test: Effect on cytokines of PPAR-associated pathways; conditions: no data shown
PPAR Alpha = target: T1, PPAR Alpha (Homo sapiens, UniProt Q07869); test: PathHunter NHR protein interaction test, agonist mode, PPAR Alpha; type: cell-based
T1 sequence (Q07869 1-468): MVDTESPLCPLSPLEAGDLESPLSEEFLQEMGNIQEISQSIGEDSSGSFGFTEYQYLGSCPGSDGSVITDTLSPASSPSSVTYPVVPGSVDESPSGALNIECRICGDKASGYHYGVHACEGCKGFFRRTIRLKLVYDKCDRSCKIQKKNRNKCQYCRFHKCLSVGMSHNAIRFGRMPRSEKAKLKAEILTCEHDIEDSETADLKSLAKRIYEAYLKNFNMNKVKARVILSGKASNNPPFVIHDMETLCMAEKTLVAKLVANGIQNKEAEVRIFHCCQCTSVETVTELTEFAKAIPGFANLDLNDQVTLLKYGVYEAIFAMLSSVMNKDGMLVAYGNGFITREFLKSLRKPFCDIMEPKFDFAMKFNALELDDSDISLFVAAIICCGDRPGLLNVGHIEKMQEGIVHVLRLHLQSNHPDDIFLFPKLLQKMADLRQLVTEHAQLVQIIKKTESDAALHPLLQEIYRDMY
Description: (§1) Principles of in Vitro Test of PPAR Agonist Activity
(§2) Nuclear Hormone Receptor (NHR) Test
(§3) PathHunter's NHR protein interaction and nuclear transfer test are used to detect the activation ability of nuclear hormone receptor in a uniform, non-imaging experiment. This technology is called as enzyme fragment complementation […], and is developed by DiscoverX.
(§4) NHR protein test is based on the detection of the protein-protein interaction between a standard length of NHR protein in an activated state and a nuclear fusion protein containing a steroid receptor co-activating peptide (SRCP) region and one or more standard LXXLL acting sequences.
(§5) NHR is labeled on the ProLink™ component of an EFC test system, and the SRCP region and the enzyme receptor component (EA) are fused and expressed in the nucleus. When bound to the ligand, the NHR will transfer to the nucleus and obtain the SRCP region in which a complementary effect is produced, thereby generating an equivalent amount of activated-galactosidase (-Gal), accompanied by the generation of chemical light signals. The benefits associated with this pathway include reduced incubation time of the compound, direct test of an NHR target, use of human NHR sequences with a standard length, and selection of some new classes of compounds based on the disruption of protein-protein interactions.
(§6) The NHR NT test detected the transfer of an NHR between the cytoplasmic and nuclear compartments. The receptor was labeled on the ProLink™ component of the EFC test system, while the EA and nuclear sequence were fused, thereby limiting the expression of EA on the nucleus. Nucleus transfer leaded to the complementary effect with EA, thereby generating one equivalent of activated galactosidase (-Gal), accompanied by the generation of chemical light signals.
(§7) 1. PathHunter NHR cell strains were spread from a frozen stock in accordance with standard operations.
(§8) 2. Cells were seeded onto a 384-well white cell plate of 20 uL/well, and incubated at 37° C. for an appropriate time prior to test. The culture medium contained activated carbon dextran with filtered serum to reduce the level of hormone expression.
(§9) Experiments of Agonist Mode:
(§10) 1. As for the measurement of an agonist activity, it is required to incubate the cells with the compound to induce a response.
2. […]
(§11) 2. The chemiluminescence signals generated by the microplate were to be detected by a PerkinElmer Envision instrument.
(§12) 1. The activity of the compound was analyzed by CIBS data analysis software (ChemInnovation, CA).
(§13) 2. For experiments of agonist mode, the percentage activity is calculated by the following formula: % activity=100%×(the mean RLU of the compound to be tested−the mean background RLU of the medium)/(the mean of maximum control of the ligand−the mean background RLU of the medium)

PPAR Gamma = target: T2, PPAR Gamma (Homo sapiens, UniProt P37231); test: PathHunter NHR protein interaction test, agonist mode, PPAR Gamma; type: cell-based; conditions: agonist mode
T2 sequence (P37231 1-505): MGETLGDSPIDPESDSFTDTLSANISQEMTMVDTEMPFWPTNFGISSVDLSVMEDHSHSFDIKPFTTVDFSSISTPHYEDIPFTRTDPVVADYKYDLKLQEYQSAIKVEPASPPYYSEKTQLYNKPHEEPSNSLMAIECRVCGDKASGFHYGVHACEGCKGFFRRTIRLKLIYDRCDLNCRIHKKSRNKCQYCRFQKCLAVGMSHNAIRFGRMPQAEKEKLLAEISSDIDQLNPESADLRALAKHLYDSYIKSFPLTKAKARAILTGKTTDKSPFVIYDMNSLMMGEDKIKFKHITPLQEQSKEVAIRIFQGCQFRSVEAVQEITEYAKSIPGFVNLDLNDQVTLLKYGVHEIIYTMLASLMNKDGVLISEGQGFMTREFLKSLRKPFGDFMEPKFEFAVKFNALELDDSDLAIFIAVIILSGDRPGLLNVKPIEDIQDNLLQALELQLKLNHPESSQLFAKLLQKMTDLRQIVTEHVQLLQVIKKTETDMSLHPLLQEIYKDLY
Description: as §1, §2, §3, §4, §5
The NHR NT test detected the transfer of an NHR between the cytoplasmic and nuclear compartments. […]
as §11, §12, §13

PPAR Delta = target: T3, PPAR Delta (Homo sapiens, UniProt Q03181); test: PathHunter NHR protein interaction test, agonist mode, PPAR Delta; type: cell-based
T3 sequence (Q03181 1-441): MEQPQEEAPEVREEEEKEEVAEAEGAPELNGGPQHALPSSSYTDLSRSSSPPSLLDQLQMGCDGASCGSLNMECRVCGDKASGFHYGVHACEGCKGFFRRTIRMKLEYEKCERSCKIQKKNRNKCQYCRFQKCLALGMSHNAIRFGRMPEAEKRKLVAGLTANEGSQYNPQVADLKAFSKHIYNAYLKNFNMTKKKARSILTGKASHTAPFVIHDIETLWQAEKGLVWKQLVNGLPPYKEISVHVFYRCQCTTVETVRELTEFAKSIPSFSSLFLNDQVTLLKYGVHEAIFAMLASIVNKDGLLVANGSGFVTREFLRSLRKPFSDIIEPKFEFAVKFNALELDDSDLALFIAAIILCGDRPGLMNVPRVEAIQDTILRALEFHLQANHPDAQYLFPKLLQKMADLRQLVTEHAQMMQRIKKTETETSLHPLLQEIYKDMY
Description: as §1, §2, §3, §4, §5, §6, §7, §8, §9, §10
2. […]
as §11, §12, §13

[5] = 40° C./75% humidity, open, Day 10, HPLC
[6] = 40° C./75% humidity, open, Day 30, HPLC
[7] = 40° C./75% humidity, open, Day 60, HPLC
[8] = 40° C./75% humidity, open, Day 90, HPLC

In the case of `CSc1ccc(C(=O)[C@@H]2CN(C(=O)Oc3ccccc3)C[C@H]2Cc2cc(C)c(OC(C)(C)C(=O)O)c(C)c2)cc1`, the “stability at high humidity” value ([1]; 25° C./92.5% RH, Day 10) was “does not exhibit form and appearance changes”, the Appearance ([1]; 25° C./92.5% Relative Humidity (Open), Day 10) was “Off-white powder” and the Form ([1]; 25° C./92.5% Relative Humidity (Open), Day 10, XRPD) was “Amorphous”. The Appearance ([2]; 40° C./75% humidity, open, Day 10) was “Off-white powder”, the “Purity (%)” value [2, 5] was 97.49% and the “Total Impurity (%)” value [2, 5] was 2.51%. The Appearance ([2]; 40° C./75% humidity, open, Day 30) was “Off-white powder”, the “Purity (%)” value [2, 6] was 97.31% and the “Total Impurity (%)” value [2, 6] was 2.69%. For the same compound, the Appearance ([2]; 40° C./75% humidity, open, Day 60) was “Off-white powder”, the “Purity (%)” value [2, 7] was 97.59% and the “Total Impurity (%)” value [2, 7] was 2.41%. For the same compound, the Appearance ([2]; 40° C./75% humidity, open, Day 90) was “Off-white powder”, the “Purity (%)” value [2, 8] was 97.28% and the “Total Impurity (%)” value [2, 8] was 2.72%. For the same compound, the “stability at high temperature and humidity” value ([2]; 40° C./75% humidity, up to Day 90) was “does not exhibit a significant change in content and impurities”, the Appearance ([2]; Day 0 (initial)) was “Off-white powder” and the “Purity (%)” value ([2]; Day 0 (initial), HPLC) was 97.37%. For the same compound, the “Total Impurity (%)” value ([2]; Day 0 (initial), HPLC) was 2.63%, the Appearance ([3]; 1,4-dioxane, about 20 mg in 0.3-0.4 mL, cell wraps: ...Solid precipitated after evaporation of solvent) was “Suspension (2 days)/Solid” and the Appearance ([3]; Acetone, about 20 mg in 0.3-0.4 mL, cell wraps: ...Solid precipitated after evaporation of solvent) was “Suspension (2 days)/Solid”. For the same compound, the Appearance ([3]; Acetone:water = 3:1, about 20 mg in 0.3-0.4 mL, cell wraps: ...Solid precipitated after evaporation of solvent) was “Suspension (2 days)/Solid”, the Appearance ([3]; Acetonitrile, about 20 mg in 0.3-0.4 mL, cell wraps: ...Solid precipitated after evaporation of solvent) was “Suspension (2 days)/Solid” and the Appearance ([3]; Acetonitrile:water = 3:1, about 20 mg in 0.3-0.4 mL, cell wraps: ...Solid precipitated after evaporation of solvent) was “Suspension (2 days)/Solid”. For the same compound, the Appearance ([3]; Ethanol, about 20 mg in 0.3-0.4 mL, cell wraps: ...Solid precipitated after evaporation of solvent) was “Suspension (2 days)/Solid”, the Appearance ([3]; Ethanol:water = 3:1, about 20 mg in 0.3-0.4 mL, cell wraps: ...Solid precipitated after evaporation of solvent) was “Suspension (2 days)/Solid” and the Appearance ([3]; Ethyl acetate, about 20 mg in 0.3-0.4 mL, cell wraps: ...Solid precipitated after evaporation of solvent) was “Suspension (2 days)/Solid”. The Appearance ([3]; Methanol, about 20 mg in 0.3-0.4 mL, cell wraps: ...after evaporation of solvent) was “Solid precipitated after”, the “Results (form by XRPD)” value ([3]; Methanol, stirred at 40° C. 2 days) was “Amorphous” and the Appearance ([3]; Methanol:water = 3:1, about 20 mg in 0.3-0.4 mL, cell wraps: ...after evaporation of solvent) was “Solid precipitated after”. For the same compound, the “Results (form by XRPD)” value ([3]; Methanol:water = 3:1, stirred at 40° C. 2 days) was “Amorphous”, the Appearance ([3]; Tetrafuran, about 20 mg in 0.3-0.4 mL, cell wraps: ...Solid precipitated after evaporation of solvent) was “Suspension (2 days)/Solid” and the “stability of form in various solvents” value ([3]; summary of Table 4) was “does not exhibit any change of form”. For the same compound, the “effect on cytokines of PPAR-associated pathways” value [4] was “obvious inhibitory effect”.

For `CC(C)(Sc1ccc(CCN(CCCCC2CCCCC2)C(=O)NC2CCCCC2)cc1)C(=O)O` [GW7647, reference compound], the “PPAR Alpha Maximum stimulus-response value” (PPAR Alpha; reference agonist, set as 100%) was 100%.

For `CSc1ccc(C(=O)/C=C/c2cc(C)c(OC(C)(C)C(=O)O)c(C)c2)cc1` [GFT-505, Elafibranor, reference compound], the pEC50 (PPAR Gamma) was under 6.60 and the pEC50 (PPAR Alpha; agonist mode) was under 6.60.

With `CCCc1c(OCCCOc2ccc(OCC(=O)O)cc2)ccc(C(C)=O)c1O` [L-165,041, reference compound] the pEC50 (PPAR Delta; agonist mode) was over 7.00 and the “PPAR Delta Maximum stimulus-response value” (PPAR Delta; reference agonist, set as 100%) was 100%.
